From ChEMBL document CHEMBL1153952, “Selective, potent PPARgamma agonists with cyclopentenone core structure” (Bioorg Med Chem Lett, 2009)

Key:
[1] = target: T1, Peroxisome proliferator-activated receptor delta (Homo sapiens, UniProt Q03181)
T1 sequence (Q03181 whole entry): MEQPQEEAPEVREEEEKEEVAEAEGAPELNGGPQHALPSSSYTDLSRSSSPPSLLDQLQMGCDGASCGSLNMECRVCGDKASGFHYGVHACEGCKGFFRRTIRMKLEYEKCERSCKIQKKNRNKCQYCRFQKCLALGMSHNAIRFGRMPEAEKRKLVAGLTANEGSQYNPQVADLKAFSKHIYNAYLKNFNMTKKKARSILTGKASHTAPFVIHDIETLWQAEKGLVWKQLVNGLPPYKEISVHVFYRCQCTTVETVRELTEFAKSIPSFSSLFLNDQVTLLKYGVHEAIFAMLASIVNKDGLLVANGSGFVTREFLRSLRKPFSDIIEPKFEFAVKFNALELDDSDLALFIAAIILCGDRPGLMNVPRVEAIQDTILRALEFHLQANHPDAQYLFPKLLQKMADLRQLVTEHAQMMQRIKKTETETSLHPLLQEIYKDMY

[2] = target: T2, Peroxisome proliferator-activated receptor gamma (Homo sapiens, UniProt P37231); type: cell-based, HeLa
T2 sequence (P37231 whole entry): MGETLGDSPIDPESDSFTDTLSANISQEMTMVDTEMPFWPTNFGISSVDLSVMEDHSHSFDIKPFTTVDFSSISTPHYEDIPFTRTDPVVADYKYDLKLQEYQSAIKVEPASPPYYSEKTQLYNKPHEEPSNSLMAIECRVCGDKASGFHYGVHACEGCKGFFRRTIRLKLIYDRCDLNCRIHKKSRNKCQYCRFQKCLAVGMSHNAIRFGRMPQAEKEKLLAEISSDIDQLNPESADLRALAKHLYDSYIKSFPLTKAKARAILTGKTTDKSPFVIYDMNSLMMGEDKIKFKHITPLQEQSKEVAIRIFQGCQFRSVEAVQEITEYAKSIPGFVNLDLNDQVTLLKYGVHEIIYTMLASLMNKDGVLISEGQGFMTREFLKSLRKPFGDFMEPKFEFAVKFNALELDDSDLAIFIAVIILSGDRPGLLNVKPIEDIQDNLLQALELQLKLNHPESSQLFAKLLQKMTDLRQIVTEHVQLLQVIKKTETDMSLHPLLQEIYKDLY

[3] = target: T3, Peroxisome proliferator-activated receptor alpha (Homo sapiens, UniProt Q07869); assay: Agonist activity at PPARalpha ligand binding domain expressed in human HeLa cells co-transfected with Gal4-DBD assessed as transcriptional activation by Gal4 response element-driven luciferase reporter gene assay; type: cell-based
T3 sequence (Q07869 whole entry): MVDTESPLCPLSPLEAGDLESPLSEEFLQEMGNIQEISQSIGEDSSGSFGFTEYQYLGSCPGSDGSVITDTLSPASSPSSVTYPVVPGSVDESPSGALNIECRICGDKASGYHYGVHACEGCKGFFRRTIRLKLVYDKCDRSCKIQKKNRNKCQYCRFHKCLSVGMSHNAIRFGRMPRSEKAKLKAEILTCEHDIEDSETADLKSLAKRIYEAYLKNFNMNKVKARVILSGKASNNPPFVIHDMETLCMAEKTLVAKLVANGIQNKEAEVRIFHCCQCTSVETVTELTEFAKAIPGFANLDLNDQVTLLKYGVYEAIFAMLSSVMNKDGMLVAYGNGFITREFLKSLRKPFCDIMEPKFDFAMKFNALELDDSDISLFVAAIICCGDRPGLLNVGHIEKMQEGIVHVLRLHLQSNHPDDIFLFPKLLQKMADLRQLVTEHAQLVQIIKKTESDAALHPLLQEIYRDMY

SMILES	EC50 [1]	EC50 [2]	EC50 [3]
CCCCCCC#CC1=CC(=O)[C@H](CCCCCCC)[C@H]1OCCCCCC(=O)O (relative stereo)	2000 nM	8000 nM	500 nM
CCCCCCC[C@H]1C(=O)C=C(I)[C@@H]1OCCCCCC(=O)O (relative stereo)	500 nM	30 nM	1000 nM
CCCCCCCN(CCc1ccc(SC(C)(C)C(=O)O)cc1)C(=O)Nc1ccc(F)cc1F [GSK-9578]	1000 nM	–	–
CCCCCCC#CC1=CC(=O)[C@H](CCCCCCC)[C@@H]1OCCCCCC(=O)O (relative stereo)	> 10000 nM	4000 nM	500 nM
CCCCCCC[C@H]1C(=O)C=C[C@@H]1OCCCCCC(=O)O	> 10000 nM	4000 nM	1000 nM
CCCCCCC[C@H]1C(=O)C=C[C@H]1OCCCCCC(=O)O	2000 nM	2000 nM	–
CCCCCCC[C@H]1C(=O)C=C(I)[C@H]1OCCCCCC(=O)O (relative stereo)	> 10000 nM	60 nM	> 10000 nM
